Among the data in ChEMBL document CHEMBL2074224, “Characterization of multidrug resistance-associated protein 2 in the hepatocellular disposition of 4-hydroxynonenal” (Arch Biochem Biophys, 2003) are Activity values, retold here.

The data set has as its target ATP-binding cassette sub-family C member 2 (Rattus norvegicus, UniProt Q63120). Description: TP_TRANSPORTER: efflux in isolated rat hepatocytes (Wistar/TR-). The format is functional, cell-based, Hepatocyte.

Chain of ATP-binding cassette sub-family C member 2 (Q63120 whole entry): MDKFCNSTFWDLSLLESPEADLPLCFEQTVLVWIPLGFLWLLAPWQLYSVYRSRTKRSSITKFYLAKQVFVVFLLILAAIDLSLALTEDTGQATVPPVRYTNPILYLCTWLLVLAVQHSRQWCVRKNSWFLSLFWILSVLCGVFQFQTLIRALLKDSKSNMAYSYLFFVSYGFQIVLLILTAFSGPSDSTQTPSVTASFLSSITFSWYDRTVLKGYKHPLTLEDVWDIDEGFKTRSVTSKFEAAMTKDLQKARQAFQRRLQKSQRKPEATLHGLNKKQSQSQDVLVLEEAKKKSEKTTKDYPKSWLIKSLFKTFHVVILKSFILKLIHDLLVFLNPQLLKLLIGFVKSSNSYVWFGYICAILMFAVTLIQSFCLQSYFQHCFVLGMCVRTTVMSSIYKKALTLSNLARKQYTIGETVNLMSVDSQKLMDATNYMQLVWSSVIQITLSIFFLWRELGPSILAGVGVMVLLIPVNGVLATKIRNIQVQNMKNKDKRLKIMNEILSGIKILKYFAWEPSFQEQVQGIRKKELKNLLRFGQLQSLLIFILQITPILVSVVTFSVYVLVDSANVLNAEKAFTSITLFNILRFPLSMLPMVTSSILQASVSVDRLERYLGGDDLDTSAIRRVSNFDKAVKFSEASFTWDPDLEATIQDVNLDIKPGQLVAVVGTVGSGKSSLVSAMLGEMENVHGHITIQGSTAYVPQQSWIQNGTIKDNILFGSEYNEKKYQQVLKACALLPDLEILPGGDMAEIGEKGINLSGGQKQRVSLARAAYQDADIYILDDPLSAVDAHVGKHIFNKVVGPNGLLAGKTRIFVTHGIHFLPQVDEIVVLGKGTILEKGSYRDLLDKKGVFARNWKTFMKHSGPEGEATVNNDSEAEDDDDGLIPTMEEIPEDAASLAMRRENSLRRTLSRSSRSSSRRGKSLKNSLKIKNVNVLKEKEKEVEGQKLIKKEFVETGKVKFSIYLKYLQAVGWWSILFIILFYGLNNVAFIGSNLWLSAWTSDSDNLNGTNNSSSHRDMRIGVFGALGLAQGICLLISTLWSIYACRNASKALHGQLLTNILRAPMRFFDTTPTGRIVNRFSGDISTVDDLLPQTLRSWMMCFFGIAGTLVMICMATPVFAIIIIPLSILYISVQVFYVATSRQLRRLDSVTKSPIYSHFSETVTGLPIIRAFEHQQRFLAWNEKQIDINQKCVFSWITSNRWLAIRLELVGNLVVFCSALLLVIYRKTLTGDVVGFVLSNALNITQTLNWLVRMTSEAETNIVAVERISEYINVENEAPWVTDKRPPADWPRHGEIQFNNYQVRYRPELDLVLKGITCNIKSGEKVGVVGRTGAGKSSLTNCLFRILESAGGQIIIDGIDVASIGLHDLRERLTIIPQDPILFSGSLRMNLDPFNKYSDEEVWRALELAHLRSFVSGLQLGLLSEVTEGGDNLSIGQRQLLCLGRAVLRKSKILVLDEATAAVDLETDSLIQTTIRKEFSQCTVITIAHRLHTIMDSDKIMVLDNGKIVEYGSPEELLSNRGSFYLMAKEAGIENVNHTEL

As to `CCCCCC1OC(O)CC1SC[C@H](NC(=O)CC[C@H](N)C(=O)O)C(=O)NCC(=O)O` (stereo partly specified), the Activity result was “substrate []”.
